Data published in the NIST ThermoML archive (doi:10.1016/j.jct.2015.08.040).
Numbers after ± are expanded uncertainties.

Test: xn = mol fraction of the nth substance listed
Settings: 100 kPa, Liquid; for speed of sound: Frequency=2 MHz, Linear variable-path acoustic interferometer; for mass density: Vibrating tube method

CCOCCO [2-ethoxyethan-1-ol] + OCc1ccccc1
Settings | mass density, 298.15 K [kg/m3] | mass density, 303.15 K [kg/m3] | mass density, 308.15 K [kg/m3] | mass density, 313.15 K [kg/m3] | mass density, 318.15 K [kg/m3] | speed of sound, 298.15 K [m/s] | speed of sound, 308.15 K [m/s]
x2 = 0 | 925.36 ± 4 | 920.72 ± 4 | 916.11 ± 4 | 911.47 ± 4 | 906.9 ± 4 | 1301.4 ± 8 | 1274.8 ± 7.9
x2 = 0.0793 | 936.7 ± 4 | 931.63 ± 4 | 926.88 ± 4 | 922.19 ± 4 | 917.52 ± 4 | 1320 ± 8 | 1291 ± 8
x2 = 0.1593 | 947.73 ± 4 | 942.59 ± 4 | 937.61 ± 4 | 932.97 ± 4 | 928.22 ± 4 | 1339 ± 8 | 1308 ± 8
x2 = 0.2401 | 958.4 ± 4 | 953.27 ± 4 | 948.33 ± 4 | 943.6 ± 4 | 938.75 ± 4 | 1358 ± 8 | 1325 ± 8
x2 = 0.3215 | 968.73 ± 4 | 963.72 ± 4 | 958.87 ± 4 | 954.15 ± 4 | 949.14 ± 4 | 1378 ± 8 | 1342 ± 8
x2 = 0.4037 | 978.84 ± 4 | 973.92 ± 4 | 969.17 ± 4 | 964.42 ± 4 | 959.34 ± 4 | 1399 ± 9 | 1360 ± 8
x2 = 0.4866 | 988.63 ± 4 | 983.76 ± 4 | 979.06 ± 4 | 974.35 ± 4 | 969.28 ± 4 | 1419 ± 9 | 1379 ± 8
x2 = 0.5703 | 998.17 ± 4 | 993.33 ± 4 | 988.65 ± 4 | 984.06 ± 4 | 979.07 ± 4 | 1440 ± 9 | 1398 ± 9
x2 = 0.6547 | 1007.45 ± 4 | 1002.6 ± 4 | 997.97 ± 4 | 993.39 ± 4 | 988.67 ± 4 | 1460 ± 9 | 1417 ± 9
x2 = 0.7398 | 1016.35 ± 4 | 1011.53 ± 4 | 1006.89 ± 4 | 1002.53 ± 4 | 998.04 ± 4 | 1480 ± 9 | 1437 ± 9
x2 = 0.8257 | 1024.9 ± 4 | 1020.21 ± 4 | 1015.71 ± 4 | 1011.52 ± 4 | 1007.24 ± 4 | 1499 ± 9 | 1456 ± 9
x2 = 0.9125 | 1033.23 ± 4 | 1028.71 ± 4 | 1024.47 ± 4 | 1020.44 ± 4 | 1016.45 ± 4 | 1517 ± 9 | 1476 ± 9

CCCCOCCO [2-butoxyethan-1-ol] + OCc1ccccc1
Settings | mass density, 298.15 K [kg/m3] | mass density, 303.15 K [kg/m3] | mass density, 308.15 K [kg/m3] | mass density, 313.15 K [kg/m3] | mass density, 318.15 K [kg/m3] | speed of sound, 298.15 K [m/s] | speed of sound, 308.15 K [m/s]
x2 = 0 | 896.46 ± 4 | 892.22 ± 4 | 887.97 ± 4 | 883.7 ± 4 | 879.42 ± 4 | 1305 ± 8 | 1275 ± 7.8
x2 = 0.1042 | 909.14 ± 4 | 904.89 ± 4 | 900.6 ± 4 | 896.2 ± 4 | 891.93 ± 4 | 1329 ± 8 | 1296 ± 8
x2 = 0.2038 | 921.94 ± 4 | 917.61 ± 4 | 913.28 ± 4 | 908.82 ± 4 | 904.49 ± 4 | 1352 ± 8 | 1317 ± 8
x2 = 0.299 | 934.77 ± 4 | 930.34 ± 4 | 925.95 ± 4 | 921.47 ± 4 | 917.11 ± 4 | 1373 ± 8 | 1337 ± 8
x2 = 0.3902 | 947.51 ± 4 | 942.98 ± 4 | 938.56 ± 4 | 934.1 ± 4 | 929.63 ± 4 | 1394 ± 9 | 1356 ± 8
x2 = 0.4776 | 960.11 ± 4 | 955.52 ± 4 | 951.03 ± 4 | 946.55 ± 4 | 942.13 ± 4 | 1413 ± 9 | 1375 ± 8
x2 = 0.5614 | 972.47 ± 4 | 967.75 ± 4 | 963.31 ± 4 | 958.86 ± 4 | 954.41 ± 4 | 1433 ± 9 | 1394 ± 9
x2 = 0.6418 | 984.52 ± 4 | 979.84 ± 4 | 975.34 ± 4 | 970.91 ± 4 | 966.56 ± 4 | 1452 ± 9 | 1412 ± 9
x2 = 0.7191 | 996.35 ± 4 | 991.7 ± 4 | 987.22 ± 4 | 982.84 ± 4 | 978.55 ± 4 | 1470 ± 9 | 1430 ± 9
x2 = 0.7933 | 1007.85 ± 4 | 1003.3 ± 4 | 998.89 ± 4 | 994.59 ± 4 | 990.4 ± 4 | 1486 ± 9 | 1446 ± 9
x2 = 0.8648 | 1019.13 ± 4 | 1014.73 ± 4 | 1010.48 ± 4 | 1006.26 ± 4 | 1002.24 ± 4 | 1503 ± 9 | 1463 ± 9
x2 = 0.9336 | 1030.15 ± 4 | 1025.98 ± 4 | 1021.88 ± 4 | 1017.81 ± 4 | 1013.89 ± 4 | 1519 ± 9 | 1479 ± 9

OCc1ccccc1 [benzenemethanol] + COCCO
Settings | mass density, 298.15 K [kg/m3] | mass density, 303.15 K [kg/m3] | mass density, 308.15 K [kg/m3] | mass density, 313.15 K [kg/m3] | mass density, 318.15 K [kg/m3] | speed of sound, 298.15 K [m/s] | speed of sound, 308.15 K [m/s]
x1 = 0.0979 | 974.27 ± 4 | 969.06 ± 4 | 963.98 ± 4 | 958.77 ± 4 | 953.4 ± 4 | 1359 ± 8 | 1319 ± 8
x1 = 0.1928 | 985.51 ± 4 | 980.26 ± 4 | 975.04 ± 4 | 969.7 ± 4 | 964.14 ± 4 | 1377 ± 8 | 1337 ± 8
x1 = 0.2847 | 995 ± 4 | 989.74 ± 4 | 984.55 ± 4 | 979.32 ± 4 | 973.82 ± 4 | 1395 ± 9 | 1354 ± 8
x1 = 0.3739 | 1003.23 ± 4 | 998.13 ± 4 | 992.96 ± 4 | 987.81 ± 4 | 982.44 ± 4 | 1413 ± 9 | 1371 ± 8
x1 = 0.4604 | 1010.46 ± 4 | 1005.46 ± 4 | 1000.42 ± 4 | 995.25 ± 4 | 990.02 ± 4 | 1430 ± 9 | 1388 ± 8
x1 = 0.5443 | 1016.87 ± 4 | 1011.91 ± 4 | 1006.93 ± 4 | 1001.91 ± 4 | 996.67 ± 4 | 1447 ± 9 | 1405 ± 9
x1 = 0.6258 | 1022.61 ± 4 | 1017.7 ± 4 | 1012.79 ± 4 | 1007.81 ± 4 | 1002.65 ± 4 | 1463 ± 9 | 1421 ± 9
x1 = 0.7049 | 1027.69 ± 4 | 1022.84 ± 4 | 1018.04 ± 4 | 1013.09 ± 4 | 1007.91 ± 4 | 1478 ± 9 | 1437 ± 9
x1 = 0.7818 | 1032.17 ± 4 | 1027.39 ± 4 | 1022.66 ± 4 | 1017.74 ± 4 | 1012.63 ± 4 | 1493 ± 9 | 1452 ± 9
x1 = 0.8565 | 1035.9 ± 4 | 1031.28 ± 4 | 1026.79 ± 4 | 1022.07 ± 4 | 1017.05 ± 4 | 1507 ± 9 | 1467 ± 9
x1 = 0.9292 | 1038.94 ± 4 | 1034.49 ± 4 | 1030.32 ± 4 | 1025.92 ± 4 | 1021.35 ± 4 | 1521 ± 9 | 1482 ± 9
x1 = 1 | 1041.05 ± 4 | 1037.15 ± 4 | 1033.32 ± 4 | 1029.46 ± 4 | 1025.59 ± 4 | 1534.5 ± 9.3 | 1496 ± 9.1
